Assay results reported in patent publication US4764361A, “Pharmaceutical compositions” (Imperial Chemical Industries PLC, priority 1987, dated 1988).
Values joined by “and” are separate entries in the source; they are usually repeats but may differ in a detail not shown here. Equal values may be shown once.

What was measured:
Type in all cases: in vivo
[1] = tested on: oxazolone induced contact dermatitis (erythema); assay: Test C: oxazolone induced contact dermatitis in the domestic pig
Method: (c) in a standard test involving oxazolone induced contact dermatitis in the domestic pig (Test C).
Method: Domestic pigs were sensitised by topical application of 0.4 ml of a 10% w/v solution of oxazolone in acetone to the neck region on two occasions two weeks apart. Six paired sites were then prepared and delineated with one site from each pair to the left and one to the right of the mid-line of the back of the animal. […] The left hand site of the second three pairs was similarly treated with 0.05 ml of a second solution of the test compound in acetone at pH 5. All of the righthand sites were used as controls and were treated with 0.05 ml of acetone (acidified to pH 5 with citric acid). After 24 hours, the same treatment was repeated followed immediately by a challenge of 0.025 ml of a 1% w/v solution of oxazolone in acetone to the 1st and 4th pairs of sites, of 5% w/v solution of oxazolone in acetone to the 2nd and 5th pair of sites, and of 10% w/v solution of oxazolone in acetone to the 3rd and 6th pairs of sites. […] An inflammatory index was obtained by multiplying the area and erythema readings together. By comparison of the values for the treated and control sites, the percentage reduction in erythema of the test compound could be assessed.

cardiovasculature = assay: adverse effects on the cardiovasculature after topical administration; details: large doses administered topically to the skin
[2] = tested on: inflammation on the mouse ear induced by the irritant, croton oil; assay: Test A: inhibition of inflammation on the mouse ear induced by croton oil; details: for % Inhibition / % increase in ear weight ± SEM / ED50 application rate: topical; for % Inhibition / % increase in ear weight ± SEM: 4 hours; for ED50 application rate: Test A; for activity as topical anti-inflammatory agent: application rate of 250 micrograms/ear
Method: (a) in a standard test involving the inhibition of inflammation on the mouse ear induced by the irritant, croton oil (Test A);
(a) Method: Groups of mice were dosed with an acetone solution of test compound or vehicle (acetone) pre-mixed with an equal volume of 4% w/v croton oil in acetone topically to the right ear (10 μl volume). Four hours later, the animals were killed and both the left (control) and right (treated) ears were removed and weighed. The percentage increase in ear weight of the treated against control was then calculated. The anti-inflammatory activity was finally expressed as percentage inhibition for the test compound dosed group in comparison with the vehicle dosed control group.

[3] = tested on: delayed hypersensitivity reaction to the contact irritant oxazolone; assay: Test B: inhibition of the delayed hypersensitivity reaction to oxazolone in mice; details: for Inhibition: 24 hours, free base in acidified acetone pH 5
Method: (b) in a standard test involving the inhibition of the delayed hypersensitivity reaction to the contact irritant, 4-ethoxymethylene-2-phenyloxazolone (hereinafter referred to as oxazolone) in mice (Test B); and
(a) Method: Mice were sensitised by the topical application of a 10 μl portion of a 0.5% w/v solution of oxazolone in acetone. After 7 days, a 10 μl portion of a solution of the test compound in acetone (acidified to pH 5 with citric acid*) or, for control purposes, just the acidified acetone vehicle, was applied to the right ears of the mice and immediately followed by an application of 10 μl of 0.5% w/v solution of oxazolone in acetone. After 24 hours the animals were killed, the ears removed and results calculated as for Test A above.
*Note: acidified acetone was used to eliminate any possible reaction between the basic test compound of formula I and the oxazolone.]

[4] = Average of experiments 1-3, 2% w/v in acetone pH 5
[5] = Experiment 1, 2% w/v in acetone pH 5, listed as (-)-optically active (S) form
[6] = Experiment 2, 2% w/v in acetone pH 5
[7] = Experiment 3, 2% w/v in acetone pH 5
[8] = cream formulation II, 0.25% w/w
[9] = 1% w/v in aqueous ethanol containing 40% w/v N-methylpyrrolidone

CC(C)C(=O)NCCNCC(O)COc1ccccc1 (racemic) [compound of formula I, N-(2-[2-hydroxy-3-phenoxypropyl]aminoethyl)isobutyramide]
overt toxic or adverse effects ([1]; during Test C): no overt toxic or adverse effects were observed | adverse effects on the cardiovasculature (cardiovasculature): no adverse effects on the cardiovasculature

CC(C)C(=O)NCCNCC(O)COc1ccccc1 (racemic) [racemate, N-(2-[2-hydroxy-3-phenoxypropyl]aminoethyl)isobutyramide]
% Inhibition ([2]; 2.5 μg/ear): 25.6% | % increase in ear weight ± SEM ([2]; 2.5 μg/ear): 59.1 ± 5.92% | % Inhibition ([2]; 25 μg/ear): 49.3% | % increase in ear weight ± SEM ([2]; 25 μg/ear): 40.2 ± 4.88% | % Inhibition ([2]; 250 μg/ear): 61.8% | % increase in ear weight ± SEM ([2]; 250 μg/ear): 30.3 ± 4.0% | ED50 application rate [2]: 44 micrograms/ear

CC(C)C(=O)NCCNC[C@H](O)COc1ccccc1 [(-)-(S) form, (-)-N-(2-[2-hydroxy-3-phenoxypropyl]aminoethyl)isobutyramide]
% of sites in which erythema is inhibited by 30% [1, 4]: 71% | % of sites in which erythema is inhibited by 50% [1, 4]: 53% | % of sites in which erythema is inhibited by 70% [1, 4]: 16% | % of sites in which erythema is inhibited by 30% [1, 5]: 80% and 73% | % of sites in which erythema is inhibited by 50% [1, 5]: 60% and 36% | % of sites in which erythema is inhibited by 30% [1, 6]: 50% | % of sites in which erythema is inhibited by 50% [1, 6]: 50% | % of sites in which erythema is inhibited by 70% [1, 6]: 17% | % of sites in which erythema is inhibited by 30% [1, 7]: 83% | % of sites in which erythema is inhibited by 50% [1, 7]: 67% | % of sites in which erythema is inhibited by 70% [1, 7]: 17% | % of sites in which erythema is inhibited by 30% [1, 8]: 86% | % of sites in which erythema is inhibited by 50% [1, 8]: 29% | % of sites in which erythema is inhibited by 70% [1, 8]: 14% | % of sites in which erythema is inhibited by 30% ([1]; cream formulation II, 0.5% w/w): 86% | % of sites in which erythema is inhibited by 50% ([1]; cream formulation II, 0.5% w/w): 29% | % of sites in which erythema is inhibited by 70% ([1]; cream formulation II, 0.5% w/w): 29% | % of sites in which erythema is inhibited by 30% ([1]; cream formulation II, 1% w/w): 88% | % of sites in which erythema is inhibited by 50% ([1]; cream formulation II, 1% w/w): 75% | % of sites in which erythema is inhibited by 70% ([1]; cream formulation II, 1% w/w): 50% | % of sites in which erythema is inhibited by 30% ([1]; cream formulation II, 2% w/w): 100% | % of sites in which erythema is inhibited by 50% ([1]; cream formulation II, 2% w/w): 80% | % of sites in which erythema is inhibited by 70% ([1]; cream formulation II, 2% w/w): 80% | % Inhibition ([2]; 4.9 μg/ear): 23.8% | % increase in ear weight ± SEM ([2]; 4.9 μg/ear): 65.2 ± 3.17% | % Inhibition ([2]; 14.8 μg/ear): 46.5% | % increase in ear weight ± SEM ([2]; 14.8 μg/ear): 45.8 ± 3.96% | % Inhibition ([2]; 44.4 μg/ear): 52.2% | % increase in ear weight ± SEM ([2]; 44.4 μg/ear): 40.9 ± 4.02% | % Inhibition ([2]; 133.3 μg/ear): 66.5% | % increase in ear weight ± SEM ([2]; 133.3 μg/ear): 28.6 ± 3.56% | % Inhibition ([2]; 400 μg/ear): 91.8% | % increase in ear weight ± SEM ([2]; 400 μg/ear): 7.0 ± 1.25% | ED50 application rate [2]: 29 micrograms/ear | Inhibition ([3]; 2.5 μg/ear): 20 ± 8% | Inhibition ([3]; 25 μg/ear): 35 ± 9% | Inhibition ([3]; 250 μg/ear): 60 ± 7% | ED50 ([3]; calculated from the dose-inhibition table): 91 μg/ear

CCCCC(=O)O[C@]1(C(=O)CO)[C@@H](C)C[C@H]2[C@@H]3CCC4=CC(=O)C=C[C@]4(C)[C@@]3(F)[C@@H](O)C[C@@]21C [BV, betamethasone-17-valerate, reference compound]
% of sites in which erythema is inhibited by 30% [1, 9]: 75% | % of sites in which erythema is inhibited by 50% [1, 9]: 38% | % of sites in which erythema is inhibited by 70% [1, 9]: 25%

C[C@]12CCC(=O)C=C1CC[C@@H]1[C@@H]2[C@@H](O)C[C@@]2(C)[C@H]1CC[C@]2(O)C(=O)CO [hydrocortisone, reference compound]
% of sites in which erythema is inhibited by 30% [1, 9]: 67% | % of sites in which erythema is inhibited by 50% [1, 9]: 28% | % of sites in which erythema is inhibited by 70% [1, 9]: 6% | Inhibition ([2]; similar test conditions, 25 μg/ear): approximately 70%

CC(C)NCC(O)COc1cccc2ccccc12 (stereo not drawn) [propranolol, reference compound]
activity as topical anti-inflammatory agent [2]: inactive

CC(C)C(=O)NCCNC[C@@H](O)COc1ccccc1 [reference compound]
activity as topical anti-inflammatory agent [2]: inactive

O=C(NCCNCC(O)COc1ccc(O)cc1)N1CCOCC1 (stereo not drawn) [xamoterol, reference compound]
activity as topical anti-inflammatory agent [2]: inactive
